Source: US11376264B2, “Use of bromodomain-containing protein 9 antagonists in combination with vitamin D receptor agonists in diabetes treatment” (Salk Institute for Biological Studies, priority 2017, dated 2022)
Entries after “also recorded” stand apart in the source; their conditions may differ.

How the values were obtained:
INS1 cells = test: H3K27Ac ChIP-seq enhancer landscape in IL1β-treated INS1 cells; format: cell-based, rat; conditions: 1 hour IL1β
From the text: The experimental procedure for ChIP was as previously described (Barish et al., 2010, Genes Dev 24:2760-5). Briefly, after fixation, nuclei from were isolated, lysed, and sheared with a Diagenode Bioruptor to yield DNA fragment sizes of 200-1,000 bp followed by immunoprecipitation.
The procedure was as previously described (Barish et al., 2010, Genes Dev 24:2760-5). Briefly, short DNA reads were aligned against the mouse mm9 or rat rn4 reference genome using the Illumina CASAVA v1.8.2. Reads were aligned using the Bowtie aligner, allowing up to two mismatches in the read. Only tags that map uniquely to the genome were considered for further analysis. Subsequent peak calling and motif analysis were conducted using HOMER, a software suite for ChIP-seq analysis. The methods for HOMER, described below, have been implemented and are available at http://homer.ucsd.edu. One tag from each unique position was considered to eliminate peaks resulting from clonal amplification of fragments during the ChIP-seq protocol. Peaks were identified by searching for clusters of tags within a sliding 200 bp window, requiring adjacent clusters to be at least 1 kb away from each other. The threshold for the number of tags that determine a valid peak was selected for an FDR <0.001, as empirically determined by repeating the peak finding procedure using randomized tag positions. […]

db/db (B6) mice = test: db/db (B6) mouse T2D model treatment; format: in vivo; conditions: for fasted blood glucose levels: Cal 60 μg/kg, iBRD9 10 mg/kg i.p. 3 times a week, 9 weeks; for serum insulin levels: FIG. 10D, fasting / random fed
Description: The following mice strains were from Jackson: VDR KO (B6.129S4-Vdrtm1Mbd/J), B6 db (B6.BKS(D)-Leprdb/J), BKS db (BKS.Cg-Dock7m+/+ Leprdb/J), C57BL6/J. Animals were maintained in a specific pathogen-free animal facility on a 12-hr light-dark cycle at an ambient temperature of 23° C. Water and food were provided ad lib. All animal experiments used age-matched male mice. VDR KO and control littermate mice were maintained on a VDR KO rescue diet containing 21% calcium, 0.67% phosphorus, and 20% lactose supplemented with 4.4 U vitamin D per gram diet.
db/db (B6) mice were grouped based on glucose levels at the age of 5 weeks. Treatments were started from 6 weeks and animals were treated with vehicle (30% 2-Hydroxypropyl-β Cyclodextrin, Sigma, H-107) or drugs 3 times a week. […] For db/db (BKS) mice, treatment started from age of 10 weeks.
(§1) Intraperitoneal GTTs were performed on overnight fasted mice. Blood glucose values were assessed before and at 0, 15, 30, 60, and 120 min after i.p. administration of 0.5 g/kg of glucose. Serum insulin levels were assessed before and at 0, 15, and 60 min after the i.p. administration of glucose using a rat/mouse Insulin ELISA kit (Millipore). IP-ITT assays were performed on mice after a 6 hr fast with an injection of 2 U/kg of insulin (Humalin R, Eli Lilly).
ELISA were performed per manufacturer's instructions: mouse insulin (Millipore, EZRMI-13K), mouse proinsulin (Mercodia, NC9088881).

VDR-PCAF interaction = test: Immunoprecipitation of endogenous PCAF with HA-VDR in INS1 cells; format: cell-based, rat; conditions: INS1 cells expressing HA-VDR, 1 hr after treatment
Description: Immunoprecipitations were performed as described previously (He et al., 2010, Mol. Cell 38, 428-38). Briefly, cells are lysed using ice-cold lysis buffer (HEPES 20 mM pH8, EDTA 0.2 mM, NaCl 0.3 mM, NP40 0.5%, 15% glycerol) for 15 min, and after centrifuging the supernatant was collected. For HA- or Flag-tagged proteins, immunoprecipitations were performed using HA-magnetic beads (Pierce, P188836), or Flag-magnetic beads (Sigma, M8823) for 1.5 hr at 4° C. For other immunoprecipitations, primary antibodies were incubated with lysates for 2 hr followed by Protein A magnetic beads (Life Technologies, 10001D). After 3 washes with wash buffer (HEPES 10 mM pH8, EDTA 0.2 mM, NaCl 0.3 mM, NP40 0.1%, 15% glycerol), the beads were boiled with NuPage LDS sample buffer and the lysates were stored at −20° C.

[1] = test system: low-dose STZ-treated mice; test: Low-dose STZ β cell damage mouse model; format: in vivo; conditions: for glucose control (overnight fasted glucose): i.p. 3 times a week; for serum insulin levels: mouse, in vivo
Description: 8 week old C57B16 male mice were injected intraperitoneally with streptozotocin (Sigma, S0130) at the dose of 50 mg/kg every day for 5 consecutive days.
For immunohistochemistry, FFPE tissues sections were deparaffinized and antigen retrieval performed using Vector Antigen Unmasking buffer (H3301). VectaStain ABC kit and ImmPACT DAB substrate (Vector Lab) were used to develop signal. Antibodies used: Pro-insulin (R&D, MAB13361, 1:100), insulin (Abcam, ab7842, 1:100), MAFA (Novus, NB400-137, 1:50), NKX6-1 (Cell Signaling, 54551, 1:100), and Glucagon (Abcam, ab82270, 1:100). DAPI-containing mounting media ([…] mounting medium for fluorescence) was used for nuclear staining. Immunostaining was visualized by ZEISS 780 confocal microscopy analysis.
as §1

Q: With `C=C1/C(=C\C=C2/CCC[C@]3(C)[C@@H]([C@H](C)/C=C/[C@@H](O)C4CC4)CC[C@@H]23)C[C@@H](O)C[C@@H]1O` [Cal, calcipotriol] as the molecule, how does the “reversal of IL1β-induced changes in H3K27 acetylation” value (INS1 cells) read?
A: Its value is “partially reverse the impact of IL1β”.

Q: What about the “fasted blood glucose levels” value (db/db (B6) mice) of the same molecule?
A: The value was “modest improvements; also recorded: mildly reduces”.

Q: What about the serum insulin levels (db/db (B6) mice) of the same molecule?
A: The serum insulin levels was “higher fasting serum insulin levels”.

Q: And the “cytokine and chemokine genes in islets” value (db/db (B6) mice; RNA-seq of islets)?
A: The value was “downregulated”.

Q: And the “key transcription factors (Nkx6-1, Nr4a1) in islets” value (db/db (B6) mice; RNA-seq of islets)?
A: Its value is “upregulation”.

Q: What about the “Cyp24A1 expression in islets and intestine” value (db/db (B6) mice; VDR target gene) of the same molecule?
A: Its value is “marked induction”.

Q: What about the “glucose tolerance (IPGTT)” value (db/db (B6) mice; after 9 weeks treatment) of the same molecule?
A: Its value is “improved glucose clearance; also recorded: better glucose tolerance”.

Q: What about the “Ins2 mRNA levels in islets” value (db/db (B6) mice; qPCR) of the same molecule?
A: Its value is “trended upwards; also recorded: increased expression of Ins2”.

Q: What about the “expression of gluconeogenesis genes (Pepck, Fbp1, G6pase) in liver” value (db/db (B6) mice; qPCR) of the same molecule?
A: The value was “reduced expression; also recorded: repressed”.

Q: And the “PCAF binding to VDR” value (VDR-PCAF interaction)?
A: Its value is “increased”.

Q: What about the “glucose control (overnight fasted glucose)” value [1] of the same molecule?
A: The value was “limited to no benefit”.

Q: What about the serum insulin levels [1] of the same molecule?
A: Its serum insulin levels is “increased levels of insulin”.

Q: With `CCn1cc(-c2cccc(C(F)(F)F)c2)c2sc(C(=N)NC3CCS(=O)(=O)CC3)cc2c1=O` [iBRD9] as the molecule, how does the “reversal of IL1β-induced changes in H3K27 acetylation” value (INS1 cells) read?
A: Its value is “partially reverse the impact of IL1β”.

Q: And the “fasted blood glucose levels” value (db/db (B6) mice)?
A: Its value is “modest improvements”.

Q: And the serum insulin levels (db/db (B6) mice)?
A: Its serum insulin levels is “higher fasting serum insulin levels”.

Q: And the “PCAF binding to VDR” value (VDR-PCAF interaction)?
A: Its value is “increased”.

Q: And the “glucose control (overnight fasted glucose)” value [1]?
A: Its value is “limited to no benefit”.

Q: And the serum insulin levels [1]?
A: Its serum insulin levels is “increased levels of insulin”.
